Laboratory results as given in patent US20250295646A1, “METHODS OF USE OF T-TYPE CALCIUM CHANNEL MODULATORS” (Praxis Precision Medicines, Inc., priority 2022, published 2025).

Test: Example 16 Part B: treatment emergent adverse events, down-titration, discontinuation
[1] = Part B Randomized Withdrawal (N = 11), arm (Formula (I) or placebo) not stated
[2] = Part B, reported by the same patient

CC(C)(C)NC(=O)CN1CCC(CNC(=O)c2cc(F)cc(Cl)c2)CC1 [compound of formula (I), N-((1-(2-(tert-butylamino)-2-oxoethyl)piperidin-4-yl)methyl)-3-chloro-5-fluorobenzamide]
3: TEAE Fatigue, participants (Part B Open Label (N = 14))
6: TEAE Constipation, participants (Part B Open Label (N = 14))
Four of 14 participants: participants who down-titrated (Part B)
1: TEAE associated with discontinuation: Confusional state (Part B) | TEAE associated with discontinuation: Cyst (Part B) | TEAE associated with discontinuation: Disturbance in attention (Part B) | TEAE leading to down titration: Confusional state (Part B) | TEAE leading to down titration: Disturbance in attention (Part B) | TEAE leading to down titration: Dizziness postural (Part B) | TEAE leading to down titration: Paraesthesia (Part B) | TEAE leading to down titration: Somnolence (Part B) | TEAE Anxiety, participants (Part B Open Label (N = 14)) | TEAE Cognitive Disorder, participants (Part B Open Label (N = 14)) | TEAE Headache, participants (Part B Open Label (N = 14)) | TEAE Fatigue, participants [1] | TEAE Headache, participants [1] | TEAE associated with discontinuation: Gait disturbances [2] | TEAE associated with discontinuation: Hypotension [2] | TEAE associated with discontinuation: Muscle fatigue [2] | TEAE associated with discontinuation: Speech disorder [2]
4: TEAE Dizziness, participants (Part B Open Label (N = 14))
up to 120 mg: dosing well-tolerated with titration (Part B, essential tremor patients)
2: TEAE Insomnia, participants (Part B Open Label (N = 14)) | TEAE Paraesthesia, participants (Part B Open Label (N = 14))
three of 14 participants: participants who discontinued administration (Part B)
